Test results as given in the NIST ThermoML archive (doi:10.1007/s10765-014-1759-1).
Numbers after ± are expanded uncertainties.

Details: 101.33 kPa, Liquid; for viscosity: Capillary tube (Ostwald / Ubbelohde) method; for mass density: Vibrating tube method

Compound `C1CCCCC1` [cyclohexane] has a viscosity (293.15 K) of 0.978 ± 0.0084 mPa·s, a mass density (293.15 K) of 778.7 ± 0.3 kg/m3 and a viscosity (298.15 K) of 0.8931 ± 0.0079 mPa·s. The mass density (298.15 K) was 773.9 ± 0.3 kg/m3.

With `CCc1ccccc1` [ethylbenzene] the viscosity (293.15 K) was 0.6735 ± 0.0066 mPa·s, the mass density (293.15 K) was 867.1 ± 0.6 kg/m3 and the viscosity (298.15 K) was 0.6318 ± 0.0064 mPa·s. For the same compound, the mass density (298.15 K) was 862.7 ± 0.6 kg/m3.

`CCCCCCC` [heptane] gave a viscosity (293.15 K) of 0.412 ± 0.0053 mPa·s, a mass density (293.15 K) of 684 ± 0.6 kg/m3 and a viscosity (298.15 K) of 0.3895 ± 0.0052 mPa·s. It also gave a mass density (298.15 K) of 679.7 ± 0.6 kg/m3.

With `CCCCCCCC` [octane] the viscosity (293.15 K) was 0.5433 ± 0.0059 mPa·s, the mass density (293.15 K) was 702.5 ± 0.6 kg/m3 and the viscosity (298.15 K) was 0.5108 ± 0.0057 mPa·s. The mass density (298.15 K) was 698.5 ± 0.6 kg/m3.

Work on `Cc1ccccc1` [toluene] yielded a viscosity (293.15 K) of 0.5891 ± 0.0061 mPa·s, a mass density (293.15 K) of 866.7 ± 0.6 kg/m3 and a viscosity (298.15 K) of 0.5528 ± 0.006 mPa·s. It also gave a mass density (298.15 K) of 862 ± 0.6 kg/m3.
